The term Vmax denotes the rate approached at saturating substrate. A word on the kcat: it is the number of substrate molecules converted per active site and unit of time at saturation. By Kd is commonly meant the concentration at which binding is half-saturated.

Values joined by “and” are separate entries in the source; they are usually repeats but may differ in a detail not shown here. Identical values can stand only once.

Consider one molecule from publication PMC9304066, “H2S biogenesis by cystathionine beta-synthase: mechanism of inhibition by aminooxyacetic acid and unexpected role of serine” (Cellular and Molecular Life Sciences: CMLS, 2022).

Assay [1] concerns the target T1, HsCBS (Homo sapiens, UniProt P35520, DEL516-525).
T1 construct: purchased GenScript
T1 sequence (P35520 with tags, fused parts or gaps DEL516-525): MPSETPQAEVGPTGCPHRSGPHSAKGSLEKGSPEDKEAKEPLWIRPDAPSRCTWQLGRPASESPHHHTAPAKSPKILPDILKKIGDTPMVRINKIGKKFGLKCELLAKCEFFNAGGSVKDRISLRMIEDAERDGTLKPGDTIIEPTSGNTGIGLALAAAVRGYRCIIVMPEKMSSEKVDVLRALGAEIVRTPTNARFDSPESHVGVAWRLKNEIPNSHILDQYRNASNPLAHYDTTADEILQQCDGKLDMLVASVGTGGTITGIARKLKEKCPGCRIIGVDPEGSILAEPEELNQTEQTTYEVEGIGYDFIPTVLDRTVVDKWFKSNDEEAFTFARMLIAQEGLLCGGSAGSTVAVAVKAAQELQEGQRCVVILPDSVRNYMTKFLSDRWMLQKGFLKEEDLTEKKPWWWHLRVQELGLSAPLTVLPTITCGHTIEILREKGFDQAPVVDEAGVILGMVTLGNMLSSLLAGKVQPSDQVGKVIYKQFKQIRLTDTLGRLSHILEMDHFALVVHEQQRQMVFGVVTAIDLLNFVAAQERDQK
Briefly: CBS H2S production assay (AzMC fluorometric), HsCBS. It counts as biochemical. Particulars: AzMC assay. The method, then:
(§1) CBS H2S production assay. H2S-producing activity of CBS, utilizing Cys and Hcy, was determined using a fluorometric assay employing the H2S-selective fluorescent probe 7-azido-4-methylcoumarin (AzMC) as described previously. The reaction mixture in a total volume of 200 µL contained 50 mM Tris–HCl pH 8.6, 5 μM PLP, 2 mM Hcy, 10 μM AzMC and 500 ng tScCBS or HsCBS. The plate was incubated for 10 min at 37°C and the enzymatic activity was triggered by adding 0–50 mM Cys. The fluorescence of the mixtures at 450 nm (excited at 365 nm) was followed for 2 h at 37°C. All measurements were performed in triplicates using Tecan Infinite 200 PRO microplate reader. Kinetic data were analyzed using GraphPad Prism software.

Assay [2] deals with T2, tScCBS (Saccharomyces cerevisiae, UniProt P32582).
T2 construct: 6xHis (C); made in house
T2 sequence (P32582 1-345): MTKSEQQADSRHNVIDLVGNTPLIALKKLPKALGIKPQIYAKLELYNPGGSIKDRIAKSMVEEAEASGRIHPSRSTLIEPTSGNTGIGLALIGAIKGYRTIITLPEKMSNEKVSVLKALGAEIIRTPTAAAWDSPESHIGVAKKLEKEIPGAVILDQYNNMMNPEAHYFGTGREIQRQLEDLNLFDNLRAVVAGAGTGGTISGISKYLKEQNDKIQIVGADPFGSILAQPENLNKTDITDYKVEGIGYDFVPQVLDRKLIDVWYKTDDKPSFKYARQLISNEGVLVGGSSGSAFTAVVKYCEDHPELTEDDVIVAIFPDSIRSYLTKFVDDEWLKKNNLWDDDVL
Briefly: UV-Vis absorption titration of tScCBS (dissociation constants). Particulars: tScCBS 1 mg/mL, pH 8.5; decrease in absorbance at 412 nm (AOAA), increase at 460 nm (Ser) or 440 nm (Cys); 3 min incubation; read-out: Dissociation constant Kd (UV-Vis absorption). In kind it is binding. The protocol:
(§2) CBS enzymes. Recombinant truncated Saccharomyces cerevisiae CBS lacking the C-terminal regulatory domain (residues 346–507) and carrying the C-terminal 6xHis tag (tScCBS) was prepared as described previously. Engineered recombinant Homo sapiens CBS lacking a loop protruding from the central β-strand of the CBS2 domain corresponding to the residues 516–525 (HsCBS; described in detail in [21]) was purchased from GenScript.
(§3) UV − Vis and fluorescence spectroscopy. Absorption spectra were collected on a Tecan Infinite M200 Pro spectrophotometer in a buffer containing 50 mM Tris–HCl pH 8.5, 20 mM NaCl and 0.5 mM tris(2-carboxyethyl)phosphine (TCEP). All the spectra were carried out with a protein concentration of 1 mg/mL with a 1 cm path-length quartz cuvette in a total volume of 150 µL. tScCBS was titrated directly in a cuvette by successive additions of different concentrations of AOAA, Ser and Cys, respectively, and spectra were recorded between 240 and 600 nm after an incubation time of 3 min at RT. Fluorescence emission spectra were collected under the same conditions upon PLP excitation at 410 nm. Blank spectra were subtracted from sample spectra.

For assay [3], the target named is T2, tScCBS. Kind of assay: Kinetics of AOAA binding to tScCBS and displacement by substrate, followed by absorption spectra. Particulars: in the presence of Cys, data not shown. The protocol:
as §3
Fig. 2 Spectroscopic rescue of AOAA-inhibited tScCBS by Ser. A Changes in the absorption spectra of tScCBS upon addition of 20 µM AOAA (cyan lines) followed for 1 h. Subsequently, 1 mM Ser (gray lines) was added and spectral changes were followed for additional 1 h. B Representative kinetic fitting of AOAA binding to tScCBS followed at 412 nm. C Representative kinetic fitting of AOAA displacement from tScCBS by Ser by following changes at 370 nm and 460 nm. The kinetic parameters of the observed processes are shown as insets in panels B and C. Far-UV (D) and near-UV (E) CD spectra of tScCBS (black), tScCBS complexed with 20 µM AOAA (cyan) or 1 mM Ser (magenta) and tScCBS complexed with 20 µM AOAA followed by 1 h incubation with 1 mM Ser (green).

The target in assay [4] is T2, tScCBS. Kind of assay: Fluorescence emission titration of tScCBS (PLP excitation at 410 nm). It counts as binding. Particulars: tScCBS 1 mg/mL, pH 8.5; decrease in emission at 520 nm, excitation 410 nm; read-out: Dissociation constant Kd (fluorescence). The protocol: as §2, §3
For assay [5], the target named is T2, tScCBS. Briefly: CBS H2S production assay (AzMC fluorometric), tScCBS. It counts as biochemical. As to conditions: tScCBS; AzMC assay. The protocol: as §1
The target of assay [6] is T1, HsCBS. Kind of assay: CBL-LDH coupled-coupled CBS assay, HsCBS. It counts as biochemical. As to conditions: CBL-LDH coupled-coupled assay. The protocol:
(§4) CBS coupled-coupled assay. CBS canonical activity utilizing Ser and Hcy was determined using cystathionine beta-lyase (CBL) and lactate-dehydrogenase (LDH) coupled-coupled assay as described previously with a few modifications. Native L-LDH from rabbit muscle was purchased from Sigma (catalog no. L2500) and recombinant CBL was purchased from Creative Enzymes (catalog no. NATE-1146). In a final volume of 150 µL, the reaction mixture contained 50 mM Tris–HCl pH 8.9, 20 µM PLP, 500 µM NADH, 1.3 µM LDH, 0.1 µM CBL, 0–20 mM Ser (or 0–50 mM Cys) and 500 ng of tScCBS or HsCBS. Assays with HsCBS were carried out in the absence or presence of 500 µM CBS allosteric activator S-adenosylmethionine (SAM). The reaction was triggered by the addition of 2 mM Hcy and the oxidation of NADH to NAD^+ was followed by monitoring the decrease in absorbance at 340 nm over time (ε340 = 6220 M^−1.cm^−1). […] All measurements were performed in triplicates using Tecan Infinite 200 PRO microplate reader. Kinetic data were analyzed using GraphPad Prism software.

The target in assay [7] is T2, tScCBS. Kind of assay: CBL-LDH coupled-coupled CBS assay, tScCBS. In kind it is biochemical. Particulars: tScCBS; CBL-LDH coupled-coupled assay. The protocol:
as §4

With `N[C@@H](CS)C(=O)O` [Cys, cysteine], the maximum rate (Vmax) came out at 113.3 ± 4.0 µmol/h/mg on HsCBS [1] (HsCBS + SAM); 30.8 ± 1.9 µmol/h/mg on HsCBS [1] (HsCBS – SAM); 317.0 ± 24.1 µmol/h/mg on tScCBS [5]; 97.2 ± 7.1 µmol/h/mg at HsCBS [6] (HsCBS + SAM); 20.1 ± 1.7 µmol/h/mg on HsCBS [6] (HsCBS – SAM); 161.5 ± 4.5 µmol/h/mg at tScCBS [7]. The kcat at HsCBS [1] (HsCBS + SAM) is 1.93 ± 0.06 s⁻¹; on HsCBS [1] (HsCBS – SAM), 0.52 ± 0.04 s⁻¹; on tScCBS [5], 3.4 ± 0.3 s⁻¹; at HsCBS [6] (HsCBS + SAM), 1.66 ± 0.03 s⁻¹; at HsCBS [6] (HsCBS – SAM), 0.34 ± 0.02 s⁻¹; on tScCBS [7], 1.7 ± 0.1 s⁻¹. The Kd on tScCBS [2] is ~58 µM and 57.3 µM; at tScCBS [4], 48.9 ± 14.6 µM. Moreover, at tScCBS [3], the “Displacement of AOAA from the tScCBS active site” value is recorded as “did not occur”.
